Reference: patent US11873298B2, “Compounds and uses thereof” (JANSSEN PHARMACEUTICA NV, priority 2017, dated 2024)
pIC50: −log10 of the molar value. Values joined by “and” are separate entries in the source; they are usually repeats but may differ in a detail not shown here. Equal values may be shown once.

What was measured:
Type in all cases: cell-based
[1] = target: T1, Ole1 (Saccharomyces cerevisiae, UniProt P21147); test: Growth inhibition of yeast strain expressing Ole1 as sole desaturase; conditions: for pIC50 / OLE1 % Max Inhibition: yeast strain expressing Ole1 as sole desaturase; for growth of yeast expressing OLE1 in presence of inhibitor: FIG. 6
T1 construct: expressed in transfected cells; host or cells: S. cerevisiae ole1Δ strain (W303 pdr1Δ pdr3Δ background), plasmid pRS316 with TDH3 promoter and CYC1 terminator
T1 sequence (P21147 1-510): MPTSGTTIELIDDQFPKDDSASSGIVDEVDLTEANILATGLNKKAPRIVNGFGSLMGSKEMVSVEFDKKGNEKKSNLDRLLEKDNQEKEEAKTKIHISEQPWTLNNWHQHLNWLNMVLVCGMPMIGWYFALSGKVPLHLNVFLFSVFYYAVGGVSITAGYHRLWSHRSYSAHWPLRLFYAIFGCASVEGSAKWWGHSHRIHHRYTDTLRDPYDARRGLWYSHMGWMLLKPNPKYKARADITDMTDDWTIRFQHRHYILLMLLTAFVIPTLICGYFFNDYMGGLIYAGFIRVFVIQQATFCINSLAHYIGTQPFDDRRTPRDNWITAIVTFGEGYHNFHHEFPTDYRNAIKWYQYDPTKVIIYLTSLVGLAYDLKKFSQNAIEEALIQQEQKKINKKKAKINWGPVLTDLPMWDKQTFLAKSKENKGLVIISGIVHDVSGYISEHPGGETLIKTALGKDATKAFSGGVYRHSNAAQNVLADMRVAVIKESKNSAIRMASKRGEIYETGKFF
Outline: (§1)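 Measured by optical density at 600 nm, growth of desaturase-dependent yeast (OLE1 deleted; human SCD1, human SCD5 or yeast Ole1 supplied from plasmid) was scored after 24 h (Ole1) or 40 h (SCD1, SCD5) at 30° C. in galactose media lacking uracil with DMSO-delivered compound.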

[2] = target: T2, SCD1 (Homo sapiens, UniProt O00767); test: Growth inhibition of humanized yeast strain expressing SCD1 as sole desaturase; conditions: for pIC50 / SCD1 % Max Inhibition: humanized yeast strain expressing SCD1; for half-maximal inhibitory concentration (IC50): SCD1 humanized strain, FIG. 6
T2 construct: host or cells: S. cerevisiae ole1Δ strain (W303 pdr1Δ pdr3Δ background), plasmid pRS316 with TDH3 promoter and CYC1 terminator
T2 sequence (O00767 1-359): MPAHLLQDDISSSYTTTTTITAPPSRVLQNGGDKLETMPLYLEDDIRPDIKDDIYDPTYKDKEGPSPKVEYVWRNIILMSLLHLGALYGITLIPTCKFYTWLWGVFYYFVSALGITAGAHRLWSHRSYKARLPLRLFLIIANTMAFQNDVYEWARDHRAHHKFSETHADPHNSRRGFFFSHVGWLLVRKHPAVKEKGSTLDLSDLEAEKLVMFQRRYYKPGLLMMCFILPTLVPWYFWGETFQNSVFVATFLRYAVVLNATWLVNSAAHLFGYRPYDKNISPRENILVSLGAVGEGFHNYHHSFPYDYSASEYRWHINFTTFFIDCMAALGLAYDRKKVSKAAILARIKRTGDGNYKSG
Outline: as §1

[3] = target: T3, SCD5 (Homo sapiens, UniProt Q86SK9); test: Growth inhibition of humanized yeast strain expressing SCD5 as sole desaturase; conditions: for pIC50 / SCD5 % Max Inhibition: humanized yeast strain expressing SCD5; for half-maximal inhibitory concentration (IC50): SCD5 humanized strain, FIG. 6
T3 construct: host or cells: S. cerevisiae ole1Δ strain (W303 pdr1Δ pdr3Δ background), plasmid pRS316 with TDH3 promoter and CYC1 terminator
T3 sequence (Q86SK9 1-330): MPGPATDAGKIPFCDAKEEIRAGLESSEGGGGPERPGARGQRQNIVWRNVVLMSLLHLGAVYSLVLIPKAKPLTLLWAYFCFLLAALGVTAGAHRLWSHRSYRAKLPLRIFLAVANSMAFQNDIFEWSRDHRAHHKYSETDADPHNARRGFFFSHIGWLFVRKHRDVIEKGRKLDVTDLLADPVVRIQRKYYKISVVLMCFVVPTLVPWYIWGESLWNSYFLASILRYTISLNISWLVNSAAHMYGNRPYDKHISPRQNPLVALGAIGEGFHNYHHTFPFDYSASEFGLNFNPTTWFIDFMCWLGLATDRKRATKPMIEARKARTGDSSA
Outline: as §1

| Structure (SMILES) | pIC50 [1] | OLE1 % Max Inhibition [1] | pIC50 [2] | SCD1 % Max Inhibition [2] | pIC50 [3] | SCD5 % Max Inhibition [3] | growth of yeast expressing OLE1 in presence of inhibitor [1] | half-maximal inhibitory concentration (IC50) [2] | half-maximal inhibitory concentration (IC50) [3] |
| --- | --- | --- | --- | --- | --- | --- | --- | --- | --- |
| Cc1nn(C)c2cc(-c3nc([C@@H]4C[C@H]5CC[C@@H](C4)N5C(=O)OC(C)(C)C)no3)ccc12 [Compound 341] | < 4.35 | 91.7% | < 4.35 | 45.2% | < 4.35 | 45.6% | – | – | – |
| Cc1ccc(N2CC(C(=O)N3CCC(c4nc(-c5ccc6c(C)nn(C)c6c5)no4)CC3)CC2=O)nc1 (stereo not shown) [Compound 184] | < 4.35 | 3.07% and 0.87% | < 4.35 | 86.33% and 50.65% | < 4.35 | 2.41% and 11.92% | – | – | – |
| Cc1ccc(N2C[C@@H](C(=O)N3CCC(c4nc(-c5ccc6c(C)nn(C)c6c5)no4)CC3)CC2=O)nc1 [Compound 302] | < 4.35 | 6.7% and 5.26% | 4.44 and ≤ 4.35 | 71.1% and 50.17% | < 4.35 | 9.4% and 10.64% | – | – | – |
| Cc1ccc(N2C[C@H](C(=O)N3CCC(c4nc(-c5ccc6c(C)nn(C)c6c5)no4)CC3)CC2=O)nc1 [Compound 303] | < 4.35 | 14.2% and 8.50% | ≤ 4.35 | 94.3% and 65% | < 4.35 | 15.6% and 20.68% | – | – | – |
| COc1ccc(N2CC(C(=O)N3CCC(c4nc(-c5ccc6c(C)nn(C)c6c5)no4)CC3)CC2=O)cc1 (stereo not shown) [Compound 206] | < 4.35 | 5.25% | < 4.35 | 93.66% | < 4.35 | 19.89% | – | – | – |
| Cc1nn(C)c2cc(-c3noc(N4CCN(C(=O)c5cc(F)ccc5C(F)(F)F)CC4)n3)ccc12 [Compound 293] | 4.46 | 66.4% | < 4.35 | 12.3% | < 4.35 | 11.9% | – | – | – |
| O=C(CNC(=O)c1ccccc1)NCCc1nc(-c2ccccc2)no1 [Compound 485] | < 4.35 | 75.19% | – | 62.60% | 4.52 | 65.42% | – | – | – |
| Cc1nn(C)c2cc(-c3noc(N4CCN(C(=O)N5CCCCC5)CC4)n3)ccc12 [Compound 327] | < 4.35 | 74.8% | – | 66.5% | < 4.35 | 68.0% | – | – | – |
| Cc1nn(C)c2cc(-c3noc(N4CCN(C(=O)[C@H]5CC(=O)N(c6ccccc6)C5)CC4)n3)cnc12 [Compound 246] | < 4.35 | 13.06% | – | 77.22% | < 4.35 | 66.03% | – | – | – |
| CCn1nc(C)c2ccc(-c3noc(C4CCN(C(=O)OC(C)(C)C)CC4)n3)cc21 [Compound 301] | < 4.35 | 99.4% | – | 96.2% | < 4.35 | 21.0% | – | – | – |
| Cc1nn(C)c2cc(-c3noc(N4CCC(C(=O)N5CCO[C@@H](c6ccccc6)C5)CC4)n3)ccc12 [Compound 210] | < 4.35 | 2.27% | < 4.35 | 30.48% | < 4.35 | 3.39% | – | – | – |
| Cc1nn(C)c2cc(-c3noc(C4CCN(C(=O)CNC(=O)c5cc(F)ccc5C(F)(F)F)CC4)n3)ccc12 [Compound 304] | < 4.35 | 14.7% | – | 74.9% | < 4.35 | 51.6% | – | – | – |
| Cc1nnc(-c2ccc(N3CCC(Oc4cc(F)ccc4Cl)CC3)nn2)o1 [CAY10566, reference compound] | – | – | – | – | – | – | resistant | low nanomolar | low nanomolar |
| Cc1nn(C)c2cc(-c3noc(C4CCN(C(=O)CNC(=O)c5ccncc5)CC4)n3)ccc12 [Compound 198] | < 4.35 | 2.96% | < 4.35 | 71.25% | < 4.35 | 36.45% | – | – | – |
| CNC(=O)c1cccc(NC(=O)N2CCC(Oc3ccccc3Cl)CC2)c1 [Compound A939572, reference compound] | – | – | – | – | – | – | resistant | low nanomolar | low nanomolar |
| Cc1nn(C)c2cc(-c3noc(C4CCN(S(=O)(=O)C(C)C)CC4)n3)ccc12 [Compound 279] | < 4.35 | 83.07% | – | 43.86% | < 4.35 | 21.97% | – | – | – |
| CNC(=O)c1ccc(-c2noc(C3CCN(C(=O)[C@H]4CC(=O)N(c5ccccc5)C4)CC3)n2)cn1 [Compound 252] | < 4.35 | 27.85% | – | 80.73% | < 4.35 | 39.69% | – | – | – |
| Cc1ncc2ccc(-c3noc(C4CCN(C(=O)CNC(=O)c5ccccc5)CC4)n3)cn12 [Compound 215] | < 4.35 | 48.68% | < 4.35 | 88.23% | < 4.35 | 78.96% | – | – | – |
| COc1ccc(-c2noc(C3CCN(C(=O)[C@@H](CO)NC(=O)c4ccccc4)CC3)n2)cc1OC [Compound 185] | < 4.35 | 93.51% | < 4.35 | 97.91% | < 4.35 | 72.91% | – | – | – |
| CCOc1ccc(-c2noc(N3CCC(C(=O)N4CCO[C@@H](c5ccccc5)C4)CC3)n2)cc1OC [Compound 217] | < 4.35 | 10.39% | 4.43 | 57.90% | < 4.35 | 12.62% | – | – | – |
| O=C(c1ccccc1)N1CCC(c2nc(N3CC4(CCCO4)C3)no2)CC1 [Compound 335] | < 4.35 | 81.5% | – | 54.0% | < 4.35 | 61.2% | – | – | – |
| CCN1C(=O)COc2ccc(-c3nc(C4(c5ccc(OC)cc5)CC4)no3)cc21 [Compound 158] | < 4.35 | 89.93% | < 4.35 | 78.34% | < 4.35 | 91.96% | – | – | – |
| CCOc1ccc(-c2noc(C3CCN(C(=O)CN4Cc5ccc(F)cc5C4=O)CC3)n2)cc1OC [Compound 177] | < 4.35 | 40.70% | < 4.35 | 97.88% | < 4.35 | 86.13% | – | – | – |
| O=C(C1CC(=O)N(c2cccc(Cl)c2)C1)N1CCC(c2nc(-c3cnn(C4COC4)c3)no2)CC1 (stereo not shown) [Compound 340] | < 4.35 | 88.9% | < 4.35 | 55.0% | < 4.35 | 65.9% | – | – | – |
| CC(C)n1cc2ccc(-c3noc(C4CCN(C(=O)C5CC(=O)N(c6ccccc6)C5)CC4)n3)cc2n1 (stereo not shown) [Compound 180] | < 4.35 | 107.78% | < 4.35 | 102.85% | < 4.35 | 82.28% | – | – | – |
| Cc1c2cc(-c3noc(C4CCN(C(=O)c5ccc(C(C)C)cc5)CC4)n3)ccc2nn1C [Compound 318] | < 4.35 | 89.1% | < 4.35 | 77.6% | < 4.35 | 33.7% | – | – | – |
